Results on eleven compounds are retold here after PubChem BioAssay (NCI).

Among the test systems are UO-31 renal; HL-60(TB) leukemia; KM12 colon; COLO 205 colon; NCI-H460 lung; HCC-2998 colon; IGROV1 ovarian; SN12C renal; RPMI-8226 leukemia; MDA-MB-231 breast.
Test in all cases: NCI-60 cell line screen, 48 h

Each structure is given as a SMILES string.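 Five concentrations, 48 hours, 96-well plates. GI50 marks 50% less growth. TGI: total growth inhibition.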

For `CSc1cc(C(C)(C)C)ccc1C(O)c1ccc(C(C)(C)C)cc1SC`, the TGI with UO-31 renal is 18.6 µM; in the assay on HL-60(TB) leukemia, 21.2 µM; with KM12 colon, 25.8 µM; with COLO 205 colon, 23 µM; in the assay on NCI-H460 lung it was 31.4 µM; in the assay on HCC-2998 colon, 32.1 µM. The TGI was found to be 26.2 µM in the assay with IGROV1 ovarian and 25.8 µM in the assay on SN12C renal.
On to `CCS(=O)(=O)N1CCN(c2ccc(Nc3ncc(C(N)=O)c(NC4CC4)n3)cc2)CC1`, for which the GI50 with UO-31 renal is 1.1 µM; in the assay on RPMI-8226 leukemia it was 2.16 µM; with KM12 colon it was 0.812 µM; with COLO 205 colon it was 2.61 µM; in the assay on MDA-MB-231 breast, 22.8 µM; in the assay with NCI-H460 lung, 15.3 µM. Besides, the GI50 was 23.8 µM with HCC-2998 colon, 5.29 µM with IGROV1 ovarian and 2.6 µM in the assay with SN12C renal. Besides, the TGI in the assay with UO-31 renal is 18.4 µM; in the assay with RPMI-8226 leukemia it was 9.82 µM; in the assay on KM12 colon, 18.5 µM; in the assay on COLO 205 colon, 21.2 µM; in the assay with MDA-MB-231 breast, above 100 µM; in the assay on NCI-H460 lung it was 59.9 µM. Also, the values for the TGI in the assay on HCC-2998 colon, with IGROV1 ovarian and in the assay on SN12C renal were above 100 µM, above 100 µM and 49.6 µM, respectively.
For `CCOP(=O)(OCC)C(NC(c1ccccc1)c1ccccc1)c1ccc(C(C)C)cc1` (stereo not drawn), the GI50 in the assay with UO-31 renal was 7.45 µM; in the assay on RPMI-8226 leukemia it was 2.65 µM; with KM12 colon it was 4.8 µM; with MDA-MB-231 breast, 6.12 µM; in the assay with NCI-H460 lung it was 5.91 µM; with HCC-2998 colon, 5.49 µM. Besides, the GI50 in the assay with SN12C renal was 4.65 µM. Besides, the TGI was 28.9 µM with UO-31 renal; 9.99 µM with RPMI-8226 leukemia; 17.2 µM in the assay with KM12 colon; 20.8 µM in the assay on MDA-MB-231 breast; above 100 µM with NCI-H460 lung; 18.2 µM with HCC-2998 colon. The TGI in the assay on SN12C renal was 16.8 µM.
Consider `Cc1ccc(/C(=C/C=C(C#N)C#N)Sc2nc3ccccc3s2)cc1`, for which the GI50 in the assay on UO-31 renal was 3.41 µM; with HL-60(TB) leukemia, 7.02 µM; in the assay on KM12 colon, 4.72 µM; in the assay with COLO 205 colon it was 3.84 µM; in the assay on MDA-MB-231 breast, 2.18 µM; with NCI-H460 lung, 18.3 µM. Moreover, the GI50 is 4.78 µM in the assay with IGROV1 ovarian and 1.98 µM with SN12C renal. In addition, the TGI is 22.5 µM with UO-31 renal; above 100 µM in the assay with HL-60(TB) leukemia; 28.9 µM in the assay with KM12 colon; 16 µM in the assay on COLO 205 colon; 5.56 µM in the assay on MDA-MB-231 breast; 75.3 µM in the assay on NCI-H460 lung. For the same compound, the TGI with IGROV1 ovarian is 29.8 µM; in the assay on SN12C renal, 4.55 µM.
Turning to `N#CC(C#N)=C1CCC2C(=C(C#N)C#N)CCC12` (stereo not drawn), the TGI in the assay with UO-31 renal, in the assay with HL-60(TB) leukemia, in the assay with RPMI-8226 leukemia, in the assay with KM12 colon, with COLO 205 colon and in the assay with NCI-H460 lung was above 100 µM in each case. Moreover, the TGI in the assay with HCC-2998 colon, with IGROV1 ovarian and in the assay with SN12C renal was above 100 µM in each case.
As for `O=C(c1ccc(Nc2nccc(NCCCCNc3ccnc4cc(Cl)ccc34)n2)cc1)N1CCCCC1`, the GI50 was 1.69 µM in the assay on UO-31 renal; 0.999 µM with RPMI-8226 leukemia; 2.94 µM in the assay on KM12 colon; 1.52 µM in the assay on COLO 205 colon; 1.86 µM in the assay on MDA-MB-231 breast; 0.475 µM in the assay with NCI-H460 lung. The GI50 is 1.91 µM in the assay on HCC-2998 colon, 2.83 µM in the assay on IGROV1 ovarian and 2.38 µM in the assay with SN12C renal. The TGI in the assay on UO-31 renal is 3.79 µM; in the assay with RPMI-8226 leukemia, 4.44 µM; in the assay with KM12 colon it was 11 µM; in the assay on COLO 205 colon, 3.25 µM; with MDA-MB-231 breast it was 4.97 µM; in the assay with NCI-H460 lung, 2.98 µM. Besides, the values for the TGI in the assay with HCC-2998 colon, in the assay on IGROV1 ovarian and in the assay on SN12C renal were 5.42 µM, 9.08 µM and 9.29 µM, respectively.
Take `CC(=O)[CH-]C(=O)c1ccccc1.CC(=O)[CH-]C(=O)c1ccccc1.CC(=O)[CH-]C(=O)c1ccccc1.[Br-].[Zr+4]`: the GI50 in the assay with HL-60(TB) leukemia is 52.7 µM; in the assay with RPMI-8226 leukemia it was 72.5 µM; in the assay with KM12 colon, above 100 µM; in the assay with COLO 205 colon, above 100 µM; with NCI-H460 lung, 78.3 µM; in the assay with IGROV1 ovarian, above 100 µM. In addition, the GI50 in the assay on SN12C renal is 57.1 µM. The TGI in the assay with HL-60(TB) leukemia, in the assay on RPMI-8226 leukemia, with KM12 colon, in the assay with COLO 205 colon, in the assay on NCI-H460 lung and with IGROV1 ovarian was above 100 µM in each case. Besides, the TGI with SN12C renal is above 100 µM.
Regarding `FC(F)(F)c1nc(Br)[nH]c1C(F)(F)F`, the TGI in the assay on UO-31 renal, in the assay with HL-60(TB) leukemia, in the assay on RPMI-8226 leukemia, with KM12 colon, in the assay on COLO 205 colon and with NCI-H460 lung was above 100 µM each time. In addition, the TGI with HCC-2998 colon, with IGROV1 ovarian and in the assay on SN12C renal was above 100 µM in each case.
On to `C=C1C(C(=O)O)C1C(=O)O` (stereo not drawn), for which the TGI with UO-31 renal, in the assay on HL-60(TB) leukemia, in the assay with RPMI-8226 leukemia, in the assay with KM12 colon, in the assay with NCI-H460 lung and with HCC-2998 colon was above 100 µM in each case. Further, the TGI in the assay on IGROV1 ovarian and in the assay on SN12C renal was above 100 µM in each case.
As for `COc1cc(NCCC2CCCCN2)c2ncccc2c1OC` (stereo not drawn), the GI50 with UO-31 renal is 14.9 µM; in the assay on RPMI-8226 leukemia, 10.1 µM; in the assay with KM12 colon, 14.9 µM; in the assay on COLO 205 colon, 10 µM; in the assay on MDA-MB-231 breast, 3.02 µM; in the assay on NCI-H460 lung, 10.5 µM. Besides, the GI50 in the assay with HCC-2998 colon was 16.9 µM; in the assay with SN12C renal, 2.23 µM. The TGI with UO-31 renal came out at 36.7 µM; in the assay with RPMI-8226 leukemia it was 50.8 µM; in the assay on KM12 colon, 33.5 µM; with COLO 205 colon, 24.2 µM; in the assay with MDA-MB-231 breast, 12.5 µM; in the assay with NCI-H460 lung it was 24.8 µM. For the same compound, the TGI in the assay with HCC-2998 colon amounted to 31.8 µM; with SN12C renal, 6.77 µM.
Take `Cc1ccc2c(c1)C(O)(c1ccccc1)CCS2` (stereo not drawn): the TGI in the assay with UO-31 renal was 48.7 µM; with HL-60(TB) leukemia, 89.6 µM; with KM12 colon it was 54.9 µM; in the assay on COLO 205 colon, above 100 µM; in the assay with MDA-MB-231 breast it was 39.8 µM; with NCI-H460 lung, above 100 µM. For the same compound, the results for the TGI in the assay on IGROV1 ovarian and with SN12C renal were 65.7 µM and above 100 µM, respectively.
